# Results published in patent US20250195513A1, “DEGRADATION OF IRAK4 BY CONJUGATION OF IRAK4 INHIBITORS WITH E3 LIGASE LIGAND AND METHODS OF USE” (BeiGene, Ltd., priority 2022, published 2025).
# Legend:
# IRAK4 [1] = target: T1, IRAK4 (Homo sapiens, UniProt Q9NWZ3); experiment: IRAK4 Degradation Assay (Karpas299, HTRF/TR-FRET); type: cell-based; conditions: Karpas-299 cells, 24 h treatment; for Dmax: maximum percentage of degradation, read-out: IRAK4 in Karpas-299 (24 h) Dmax (%); for DC50: read-out: IRAK4 in Karpas-299 (24 h) DC50
# T1 construct: endogenous in cells; host or cells: Karpas299
# T1 sequence (Q9NWZ3 1-460): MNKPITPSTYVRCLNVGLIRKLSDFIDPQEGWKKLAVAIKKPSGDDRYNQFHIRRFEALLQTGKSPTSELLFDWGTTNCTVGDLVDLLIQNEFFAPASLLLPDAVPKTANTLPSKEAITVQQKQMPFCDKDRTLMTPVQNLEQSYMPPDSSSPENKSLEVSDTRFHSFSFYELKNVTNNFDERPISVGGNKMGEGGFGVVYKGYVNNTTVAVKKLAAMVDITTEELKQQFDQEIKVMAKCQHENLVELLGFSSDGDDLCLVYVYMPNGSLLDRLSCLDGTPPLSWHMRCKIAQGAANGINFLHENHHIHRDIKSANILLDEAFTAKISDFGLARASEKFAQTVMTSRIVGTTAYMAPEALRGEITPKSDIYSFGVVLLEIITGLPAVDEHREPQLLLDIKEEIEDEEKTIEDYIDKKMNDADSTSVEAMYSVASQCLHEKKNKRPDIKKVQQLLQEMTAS
# In short: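 Compound potency as DC50 (IC50) came from four-parameter fits of percent IRAK4 degradation. IRAK4 was measured by HTRF (665/620 nm) in lysates of Karpas299 cells seeded at 0.2 million per well. Cells had been treated with compound dilutions for 5 or 24 h.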
# IRAK4 [2] = target: T1, IRAK4; experiment: IRAK4 Degradation Assay with Human Serum (Karpas299, HTRF/TR-FRET); type: cell-based; conditions: Karpas-299 in human serum, 24 hrs treatment; for DC50: read-out: IRAK4 degradtion with human serum assay DC50; for Dmax: read-out: IRAK4 degradtion with human serum assay Dmax (%)
# In short: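 Remaining IRAK4 measured by TR-FRET immunoassay on lysates of Karpas299 cells exposed 24 h to compound dilution series in human serum AB. DC50 derived from a Hill-slope fit of % degradation versus concentration.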
SMILES,Dmax (IRAK4 [1]),DC50 (IRAK4 [1]),DC50 (IRAK4 [2]),Dmax (IRAK4 [2])
"CC(C)(O)c1cc2nn([C@H]3CC[C@H](N4C[C@@H]5CN(CC6CN(c7cc(F)c(C8CCC(=O)NC8=O)c(F)c7)C6)C[C@H]5C4)CC3)cc2cc1NC(=O)c1ccc2cc(C#N)cnn12 (stereo partly drawn) [Example 359, 3-cyano-N-(2-((1S,4r)-4-((3aS,6aS)-5-((1-(4-((R)-2,6-dioxopiperidin-3-yl)-3,5-difluorophenyl)azetidin-3-yl)methyl)hexahydropyrrolo[3,4-c]pyrrol-2(1H)-yl)cyclohexyl)-6-(2-hydroxypropan-2-yl)-2H-indazol-5-yl)pyrrolo[1,2-b]pyridazine-7-carboxamide]",97%,2.4 nM,4.2 nM,103%
"CC(C)(O)c1cc2nn(C3CCC(N4C[C@@H]5CN(C6CCN(c7cc(F)c([C@H]8CCC(=O)NC8=O)c(F)c7)CC6)C[C@H]5C4)CC3)cc2cc1NC(=O)c1ccc2cc(C#N)cnn12 (stereo partly drawn) [Example 361, 3-cyano-N-(2-((1R,4r)-4-((3aR,6aR)-5-(1-(4-((R)-2,6-dioxopiperidin-3-yl)-3,5-difluorophenyl)piperidin-4-yl)hexahydropyrrolo[3,4-c]pyrrol-2(1H)-yl)cyclohexyl)-6-(2-hydroxypropan-2-yl)-2H-indazol-5-yl)pyrrolo[1,2-b]pyridazine-7-carboxamide]",97%,4.3 nM,5 nM,93%
"C[C@@H]1CN([C@H]2C[C@H](c3cc(F)c([C@H]4CCC(=O)NC4=O)c(F)c3)C2)CCN1[C@H]1CC[C@H](n2cc3cc(NC(=O)c4ccc5cc(C#N)cnn45)c(C(C)(C)O)cc3n2)CC1 [Example 366, 3-cyano-N-(2-((1R,4r)-4-((R)-4-((1R,3R)-3-(4-((R)-2,6-dioxopiperidin-3-yl)-3,5-difluorophenyl)cyclobutyl)-2-methylpiperazin-1-yl)cyclohexyl)-6-(2-hydroxypropan-2-yl)-2H-indazol-5-yl)pyrrolo[1,2-b]pyridazine-7-carboxamide]",98%,1.4 nM,14 nM,97%

# Compounds with a lower DC50 (IRAK4 [1]), results first:
Dmax (IRAK4 [1]),DC50 (IRAK4 [1]),DC50 (IRAK4 [2]),Dmax (IRAK4 [2]),SMILES
97%,1.1 nM,12 nM,97%,"CC(C)(O)c1cc2nn([C@H]3CC[C@H](N4CCN(CCCc5cc(F)c([C@H]6CCC(=O)NC6=O)c(F)c5)CC4)CC3)cc2cc1NC(=O)c1ccc2cc(C#N)cnn12 [Example 357, 3-cyano-N-(2-((1R,4r)-4-(4-(3-(4-((R)-2,6-dioxopiperidin-3-yl)-3,5-difluorophenyl)propyl)piperazin-1-yl)cyclohexyl)-6-(2-hydroxypropan-2-yl)-2H-indazol-5-yl)pyrrolo[1,2-b]pyridazine-7-carboxamide]"
93%,1.1 nM,7.7 nM,93%,"C[C@@H]1CN([C@H]2C[C@@H](c3cc(F)c([C@H]4CCC(=O)NC4=O)c(F)c3)C2)CCN1[C@H]1CC[C@H](n2cc3cc(NC(=O)c4ccc5cc(C#N)cnn45)c(C(C)(C)O)cc3n2)CC1 [Example 365, 3-cyano-N-(2-((1R,4r)-4-((R)-4-((1S,3S)-3-(4-((R)-2,6-dioxopipendin-3-yl)-3,5-difluorophenyl)cyclobutyl)-2-methylpiperazin-1-yl)cyclohexyl)-6-(2-hydroxypropan-2-yl)-2H-indazol-5-yl)pyrrolo[1,2-b]pyridazine-7-carboxamide]"
96%,0.6 nM,3 nM,97%,"CC(C)(O)C[C@H]1CN(CCc2cc(F)c([C@H]3CCC(=O)NC3=O)c(F)c2)CCN1[C@H]1CC[C@H](n2cc3cc(NC(=O)c4ccc5cc(C#N)cnn45)c(C(C)(C)O)cc3n2)CC1 [Example 369, 3-cyano-N-(2-((1S,4r)-4-((S)-4-(4-((R)-2,6-dioxopiperidin-3-yl)-3,5-difluorophenethyl)-2-(2-hydroxy-2-methylpropyl)piperazin-1-yl)cyclohexyl)-6-(2-hydroxypropan-2-yl)-2H-indazol-5-yl)pyrrolo[1,2-b]pyridazine-7-carboxamide]"
